From BigSolDB 2.1

Q: For `CC1(C)CCC2=C(O1)c1ccccc1C(=O)C2=O`, which solubility (mole fraction) (in acetone, 298.15 K) is on record?
A: Its solubility (mole fraction) is 0.0205.

Q: And the solubility (mole fraction) (in acetone, 303.15 K)?
A: The solubility (mole fraction) was 0.0216.

Q: What about the solubility (mole fraction) (in acetone, 308.15 K) of the same compound?
A: Its solubility (mole fraction) is 0.0245.

Q: And the solubility (mole fraction) (in acetone, 313.15 K)?
A: The solubility (mole fraction) was 0.0296.

Q: What about the solubility (mole fraction) (in acetone, 318.15 K) of the same compound?
A: The solubility (mole fraction) was 0.0342.

Q: And the solubility (mole fraction) (in acetonitrile, 298.15 K)?
A: Its solubility (mole fraction) is 0.018.

Q: What about the solubility (mole fraction) (in acetonitrile, 303.15 K) of the same compound?
A: Its solubility (mole fraction) is 0.0209.

Q: And the solubility (mole fraction) (in acetonitrile, 308.15 K)?
A: The solubility (mole fraction) was 0.0227.

Q: What about the solubility (mole fraction) (in acetonitrile, 313.15 K) of the same compound?
A: Its solubility (mole fraction) is 0.0269.

Q: And the solubility (mole fraction) (in acetonitrile, 318.15 K)?
A: Its solubility (mole fraction) is 0.0325.

Q: And the solubility (mole fraction) (in ethanol, 298.15 K)?
A: Its solubility (mole fraction) is 0.00499.

Q: What about the solubility (mole fraction) (in ethanol, 303.15 K) of the same compound?
A: The solubility (mole fraction) was 0.00595.

Q: And the solubility (mole fraction) (in ethanol, 308.15 K)?
A: The solubility (mole fraction) was 0.00664.

Q: What about the solubility (mole fraction) (in ethanol, 313.15 K) of the same compound?
A: The solubility (mole fraction) was 0.00909.

Q: What about the solubility (mole fraction) (in ethanol, 318.15 K) of the same compound?
A: The solubility (mole fraction) was 0.0134.

Q: And the solubility (mole fraction) (in ethyl acetate, 298.15 K)?
A: Its solubility (mole fraction) is 0.00853.

Q: And the solubility (mole fraction) (in ethyl acetate, 303.15 K)?
A: The solubility (mole fraction) was 0.00936.

Q: And the solubility (mole fraction) (in ethyl acetate, 308.15 K)?
A: Its solubility (mole fraction) is 0.0104.

Q: What about the solubility (mole fraction) (in ethyl acetate, 313.15 K) of the same compound?
A: The solubility (mole fraction) was 0.0121.

Q: And the solubility (mole fraction) (in ethyl acetate, 318.15 K)?
A: The solubility (mole fraction) was 0.0165.

Q: And the solubility (mole fraction) (in isopropanol, 298.15 K)?
A: Its solubility (mole fraction) is 0.00376.

Q: What about the solubility (mole fraction) (in isopropanol, 303.15 K) of the same compound?
A: Its solubility (mole fraction) is 0.00432.

Q: And the solubility (mole fraction) (in isopropanol, 308.15 K)?
A: Its solubility (mole fraction) is 0.00528.

Q: And the solubility (mole fraction) (in isopropanol, 313.15 K)?
A: Its solubility (mole fraction) is 0.00754.

Q: What about the solubility (mole fraction) (in isopropanol, 318.15 K) of the same compound?
A: Its solubility (mole fraction) is 0.0111.

Q: What about the solubility (mole fraction) (in methanol, 298.15 K) of the same compound?
A: The solubility (mole fraction) was 0.0054.

Q: And the solubility (mole fraction) (in methanol, 303.15 K)?
A: The solubility (mole fraction) was 0.00654.

Q: What about the solubility (mole fraction) (in methanol, 308.15 K) of the same compound?
A: Its solubility (mole fraction) is 0.0076.

Q: What about the solubility (mole fraction) (in methanol, 313.15 K) of the same compound?
A: Its solubility (mole fraction) is 0.0101.

Q: What about the solubility (mole fraction) (in methanol, 318.15 K) of the same compound?
A: Its solubility (mole fraction) is 0.0153.

Q: And the solubility (mole fraction) (in n-butanol, 298.15 K)?
A: The solubility (mole fraction) was 0.00743.

Q: What about the solubility (mole fraction) (in n-butanol, 303.15 K) of the same compound?
A: The solubility (mole fraction) was 0.00895.

Q: And the solubility (mole fraction) (in n-butanol, 308.15 K)?
A: Its solubility (mole fraction) is 0.0108.

Q: What about the solubility (mole fraction) (in n-butanol, 313.15 K) of the same compound?
A: Its solubility (mole fraction) is 0.0142.

Q: What about the solubility (mole fraction) (in n-butanol, 318.15 K) of the same compound?
A: The solubility (mole fraction) was 0.0203.

Q: And the solubility (mole fraction) (in n-propanol, 298.15 K)?
A: The solubility (mole fraction) was 0.00669.

Q: What about the solubility (mole fraction) (in n-propanol, 303.15 K) of the same compound?
A: Its solubility (mole fraction) is 0.00793.

Q: And the solubility (mole fraction) (in n-propanol, 308.15 K)?
A: The solubility (mole fraction) was 0.00969.

Q: What about the solubility (mole fraction) (in n-propanol, 313.15 K) of the same compound?
A: Its solubility (mole fraction) is 0.0146.

Q: What about the solubility (mole fraction) (in n-propanol, 318.15 K) of the same compound?
A: The solubility (mole fraction) was 0.0203.

Q: What about the solubility (mole fraction) (in propylene glycol, 298.15 K) of the same compound?
A: The solubility (mole fraction) was 0.00306.

Q: And the solubility (mole fraction) (in propylene glycol, 303.15 K)?
A: Its solubility (mole fraction) is 0.00308.

Q: What about the solubility (mole fraction) (in propylene glycol, 308.15 K) of the same compound?
A: Its solubility (mole fraction) is 0.0037.

Q: And the solubility (mole fraction) (in propylene glycol, 313.15 K)?
A: Its solubility (mole fraction) is 0.00531.

Q: And the solubility (mole fraction) (in propylene glycol, 318.15 K)?
A: The solubility (mole fraction) was 0.00724.

Q: What about the solubility (mole fraction) (in sec-butanol, 298.15 K) of the same compound?
A: Its solubility (mole fraction) is 0.00565.

Q: What about the solubility (mole fraction) (in sec-butanol, 303.15 K) of the same compound?
A: Its solubility (mole fraction) is 0.00671.

Q: What about the solubility (mole fraction) (in sec-butanol, 308.15 K) of the same compound?
A: Its solubility (mole fraction) is 0.0079.

Q: And the solubility (mole fraction) (in sec-butanol, 313.15 K)?
A: Its solubility (mole fraction) is 0.0104.

Q: And the solubility (mole fraction) (in sec-butanol, 318.15 K)?
A: The solubility (mole fraction) was 0.0162.

Q: And the solubility (mole fraction) (in water, 298.15 K)?
A: Its solubility (mole fraction) is 2.85e-06.

Q: What about the solubility (mole fraction) (in water, 303.15 K) of the same compound?
A: Its solubility (mole fraction) is 3.72e-06.

Q: And the solubility (mole fraction) (in water, 308.15 K)?
A: The solubility (mole fraction) was 4.46e-06.

Q: What about the solubility (mole fraction) (in water, 313.15 K) of the same compound?
A: Its solubility (mole fraction) is 5.26e-06.

Q: What about the solubility (mole fraction) (in water, 318.15 K) of the same compound?
A: Its solubility (mole fraction) is 6.12e-06.
